{
  "source": "patent US20080249142A1",
  "about": "“HYDRO[…] OF ME[…]” (Targacept, Inc., priority 2004, published 2008)",
  "test": "physical and chemical properties of the hydroxybenzoate salts (stated, no method described)",
  "assay_type": "physicochemical",
  "settings": "solid salt, free-flowing crystalline powder",
  "data": [
    {"substance": "(2S)-(4E)-N-methyl-5-(5-isopropoxy-3-pyridinyl)-4-penten-2-amine p-hydroxybenzoate [Example 1]", "values": [
      {"measurement": "physical and chemical stability of the salt", "value": "physically and chemically stable"}
    ]}
  ]
}
